Starred links: 1 amine or outer side, 2 acyl side, 3 side chain; linkers in the order of their positions; H or OH if unused. Positions of bridges follow the written chain, without caps; N, C: chain ends. Non-standard residues stand in square brackets, D forms with d. Residues, ends and D or L forms follow the SMILES beside them. ξ: configuration not given here. ξOrn(4,5-diOH) = O=C(C(CC(O)C(O)N[*:3])N[*:1])[*:2]; ξhTyr(βξ-OH,γξ-OH) = NC(C(=O)O)C(O)C(O)c1ccc(O)cc1; X1 = NC(=O)CC(O)C(N[*:1])C(=O)[*:2]; X2 = O=C(C1C(O)CCN1[*:1])[*:2]; Hyp = O=C(O)[CH]1C[CH](O)CN1
Tested on: Candida albicans
Experiment: Candida albicans bioassay
Type: cell-based
Conditions: bioassay used to monitor HPLC fractions
Procedure: In carrying out the reaction, Compound A, either as a purified compound or as a partially purified sample obtained from the deacylation of Compound B, is dissolved in dry dimethylformamide and the resulting solution intimately contacted with RCOX. The order of addition is not critical. The resulting mixture is stirred at room temperature for about 16 to 20 hours (conveniently overnight) whereupon a reaction takes place with the formation of Compound I. At the end of this period, the dimethylformamide is removed by concentrating in vacuo at 40°C and the resulting residue triturated, preferably sequentially, twice with ether, and then filtered. The filter cake product is generally a free flowing solid and is purified by reverse phase HPLC, typically in 0.5 gram aliquots employing acetonitrile/water as eluting agent. Fractions containing the purified product as determined by C. albicans assay, by U.V. or by refractive index are combined and first concentrated under reduced pressure and then lyophilized to separate the product.

CC(O)C1NC(=O)C(N)CC(O)C(O)NC(=O)C2C(O)CCN2C(=O)C(C(O)CC(N)=O)NC(=O)C(C(O)C(O)c2ccc(O)cc2)NC(=O)C2CC(O)CN2C1=O (stereo not drawn) [non-acylated cyclohexapeptide compound] (H-[ξOrn(4,5-diOH)]T[Hyp][ξhTyr(βξ-OH,γξ-OH)][X1][X2]; lactam 1-C; configuration not given here)
activity against Candida albicans: inactive

Source: patent publication EP0447186A1, “N-acylated cyclohexapeptide compounds” (MERCK & CO. INC., priority 1990, dated 1991)
